Values of other authors in publication PMC12238723, “Phase I Clinical Trial of CVL218, a Novel PARP1/2 Inhibitor, in Patients with Advanced Solid Tumors” (MedComm, 2025).

Tests used:
patients = details: cited from earlier work
[1] = parameters: method as in PMID 37806255; details: recommended dose of 300 mg BID; cited from earlier work

Row | Compound | incidence of MDS/AML (patients) | incidence of anemia (patients) [%] | increased risk of MDS/AML compared with placebo (patients) [%] | occurrence of grade ≥3 anemia (patients) | overall incidence of grade ≥3 AEs (patients) | rate of dose reduction due to AEs (patients) | treatment discontinuation rates (patients) | grade ≥3 gastrointestinal AEs (patients; comparison value, no reference given) [%] | median Tmax [1] [h] | grade ≥3 anemia incidence (patients)
1 | O=C(c1cc(Cc2n[nH]c(=O)c3ccccc23)ccc1F)N1CCN(C(=O)C2CC2)CC1 [olaparib, Olaparib] | approximately 1% | 21 to 46 | 158 | 5.1–22% | 36–40% | 25–29% | 6–17% | 4.3 | 1.5 | 
2 | NC(=O)c1cccc2cn(-c3ccc([C@@H]4CCCNC4)cc3)nc12 [niraparib] |  |  | 48 |  |  |  |  |  |  | 14.7–22.5%
